This note sets out measurements from publication PMC12621184, “Synthesis and Pharmacological Characterization of Nociceptin/Orphanin FQ Dimeric Ligands” (Journal of Medicinal Chemistry, 2025).

The target in assay [1] is T1, human NOP (Homo sapiens, UniProt P41146). The assay can be described thus: NOP receptor–G protein interaction BRET assay. The assay is classed as biochemical. Details: expressed in transfected cells; host or cells: membranes of HEK293 cells stably coexpressing NOP-RLuc and Gβ1-RGFP. Particulars: membranes from HEK293 cells coexpressing NOP-RLuc and Gβ1-RGFP, room temperature, mean (CL95%), N = 5 experiments in duplicate, read-out: NOP–G protein interaction pEC50 (CL95%) (converted). As for the experimental part:
A BRET interaction assay was used, as previously detailed in ref , to study the propensity of ligands to evoke interaction between the NOP receptor and to G protein. Membranes taken from HEK293 cells stably coexpressing the fusoproteins NOP-RLuc and Gβ1-RGFP were used. Such cells were grown in DMEM medium supplemented with 10% FBS, 2 mM L-glutamine, […] G418, […] hygromycin B, 100 IU/mL penicillin, and 100 IU/mL streptomycin in a humidified atmosphere with 5% CO2 at 37 °C. Cell membranes were thawed and resuspended in PBS supplemented with 0.01% BSA before the assay, and an amount of 3 μg of total protein was dispensed in each of the 96 wells together with 2 μM Prolume Purple Coelenterazine. All experiments were carried out at room temperature. Ligands were added, and averaged BRET ratios from 10 min measurements were computed. BRET ratios were computed as counts per second (CPS) obtained on a Victor Nivo (PerkinElmer) with 405 (10) nm and 510 (30) nm bandpass filters. Vehicles’ BRET ratios were derived from light passed through 510 divided by that passed through 405 filters. Vehicles BRET values were subtracted from all computations, and data sets were normalized as a fraction of N/OFQ maximal effects.
(§1) Concentration-response curves to agonists were analyzed by a four-parameter logistic nonlinear regression model: Effect = baseline + (E max – baseline)/(1 + 10^((logEC50–log[ligand])slope)). […] Experimental data were expressed as mean ± sem of at least 5 experiments. Potency values were expressed as the mean and CL95%. In vitro E max values were analyzed by one-way ANOVA, while in vivo latency data were evaluated by one-way ANOVA followed by Dunnett’s post hoc test. The proportion of mice losing the righting reflex was compared by Fisher’s exact test performed on raw data. GraphPad Prism 10.0 software was used for all of the analyses. The terminology employed is consistent with the International Union of Basic and Clinical Pharmacology (IUPHAR) recommendations. ,
A general note: In BRET a luciferase serves as donor, and the signal depends on an acceptor being close.

Assay [2] deals with T1, human NOP. The assay can be described thus: Calcium mobilization assay, CHO cells with NOP receptor and chimeric G protein. Format: cell-based. Also on record: expressed in transfected cells. Particulars: for EC50: CHO cells coexpressing human NOP and Gαqi5, Fluo-4, 37 °C, mean (CL95%), N = 5 experiments in duplicate, read-out: Ca^2+ mobilization pEC50 (CL95%) (converted); for Ca^2+ mobilization E max ± sem: CHO cells coexpressing human NOP and Gαqi5, maximum change in percentage over baseline fluorescence, mean ± sem, N = 5 in duplicate. On the procedure:
Chinese hamster ovary (CHO) cells stably coexpressing the human NOP, μ, or κ opioid receptors and the Gαqi5 protein or the human δ and the GαqG66Di5 protein were used in this assay. , Cells were cultured in DMEM/F-12 (1:1) medium supplemented with 10% FBS, 2 mM L-glutamine, […], 100 IU/mL penicillin, and 100 IU/mL streptomycin. Cells were maintained at 37 °C in a humidified atmosphere with 5% CO2 and were seeded at 50 000 cells/well into 96-well black, clear-bottom plates 24 h before test. Loading for 45 min with a solution consisting of HBSS supplemented with 2.5 mM probenecid, 3 μM Fluo-4 AM, and 0.01% pluronic acid ensures the calcium-sensitive dye (Fluo-4) reaches the needed concentration inside the cell, while the exchange of the solution with 100 μL/well of buffer consisting of HBSS with 20 mM HEPES, 2.5 mM probenecid, and 500 μM Brilliant Black allows for fluorescence background to decrease. Serial dilutions of ligands were prepared in HBSS buffer with 20 mM HEPES and 0.02% bovine serum albumin (BSA) to minimize the ligands’ stickiness to plasticware. The automated microplate reader FlexStation II (Molecular Devices, CA, US) was employed at 37 °C to detect changes in fluorescence intensity. The effects of all compounds were expressed as the maximum change in percentage over the baseline fluorescence measured in samples treated with vehicles.
as §1
(In general: Calcium assays in cells follow changes in intracellular calcium, usually with a dye or a luminescent sensor.)

Bridge positions count the residues as written; N and C are the ends. Peptide text beside a SMILES is read from it. I, II: the chains in the order shown.

T1 sequence (P41146 whole entry): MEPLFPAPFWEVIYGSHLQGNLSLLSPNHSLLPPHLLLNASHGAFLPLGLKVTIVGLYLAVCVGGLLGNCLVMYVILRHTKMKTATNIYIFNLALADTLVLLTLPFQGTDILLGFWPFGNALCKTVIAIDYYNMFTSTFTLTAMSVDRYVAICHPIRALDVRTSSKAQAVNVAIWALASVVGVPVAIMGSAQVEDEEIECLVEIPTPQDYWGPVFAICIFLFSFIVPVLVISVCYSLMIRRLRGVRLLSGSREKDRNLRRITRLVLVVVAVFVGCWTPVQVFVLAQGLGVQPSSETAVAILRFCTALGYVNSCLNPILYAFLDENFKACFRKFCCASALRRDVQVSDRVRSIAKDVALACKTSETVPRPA

Take `CC(C)C[C@H](NC(=O)[C@H](CSSC[C@H](NC(=O)[C@H](CCCNC(=N)N)NC(=O)[C@H](C)NC(=O)[C@H](CO)NC(=O)[C@H](CCCCN)NC(=O)[C@H](CCCNC(=N)N)NC(=O)[C@H](C)NC(=O)CNC(=O)[C@@H](NC(=O)[C@H](Cc1ccccc1)NC(=O)CNC(=O)CNC(=O)[C@@H](N)Cc1ccccc1)[C@@H](C)O)C(=O)N[C@@H](CC(C)C)C(=O)N[C@@H](C)C(=O)N[C@@H](CC(N)=O)C(=O)N[C@@H](CCC(N)=O)C(N)=O)NC(=O)[C@H](CCCNC(=N)N)NC(=O)[C@H](C)NC(=O)[C@H](CO)NC(=O)[C@H](CCCCN)NC(=O)[C@H](CCCNC(=N)N)NC(=O)[C@H](C)NC(=O)CNC(=O)[C@@H](NC(=O)[C@H](Cc1ccccc1)NC(=O)CNC(=O)CNC(=O)[C@@H](N)Cc1ccccc1)[C@@H](C)O)C(=O)N[C@@H](C)C(=O)N[C@@H](CC(N)=O)C(=O)N[C@@H](CCC(N)=O)C(N)=O` [1g, [[Cys^13]N/OFQ-NH2]2] (I: H-FGGFTGARKSARCLANQ-NH2 / II: H-FGGFTGARKSARCLANQ-NH2; disulfide I:13-II:13): the EC50 in assay [1] was 0.302 nM. Moreover, in assay [2], the EC50 is 1.62 nM and the “Ca^2+ mobilization E max ± sem” value was 247 ± 39 % over the baseline.
Taken in the same sequence, the figures for `CC(C)C[C@H](NC(=O)[C@H](CCCCN)NC(=O)[C@H](CCCNC(=N)N)NC(=O)[C@H](C)NC(=O)[C@H](CSSC[C@H](NC(=O)[C@H](CCCCN)NC(=O)[C@H](CCCNC(=N)N)NC(=O)[C@H](C)NC(=O)CNC(=O)[C@@H](NC(=O)[C@H](Cc1ccccc1)NC(=O)CNC(=O)CNC(=O)[C@@H](N)Cc1ccccc1)[C@@H](C)O)C(=O)N[C@@H](C)C(=O)N[C@@H](CCCNC(=N)N)C(=O)N[C@@H](CCCCN)C(=O)N[C@@H](CC(C)C)C(=O)N[C@@H](C)C(=O)N[C@@H](CC(N)=O)C(=O)N[C@@H](CCC(N)=O)C(N)=O)NC(=O)[C@H](CCCCN)NC(=O)[C@H](CCCNC(=N)N)NC(=O)[C@H](C)NC(=O)CNC(=O)[C@@H](NC(=O)[C@H](Cc1ccccc1)NC(=O)CNC(=O)CNC(=O)[C@@H](N)Cc1ccccc1)[C@@H](C)O)C(=O)N[C@@H](C)C(=O)N[C@@H](CC(N)=O)C(=O)N[C@@H](CCC(N)=O)C(N)=O` [1d, [[Cys^10]N/OFQ-NH2]2] (I: H-FGGFTGARKCARKLANQ-NH2 / II: H-FGGFTGARKCARKLANQ-NH2; disulfide I:10-II:10) were 0.141 nM, 1.91 nM and 305 ± 42 % over the baseline.
Taken in the same sequence, the figures for `CC(C)C[C@H](NC(=O)[C@H](CCCCN)NC(=O)[C@H](CCCNC(=N)N)NC(=O)[C@H](C)NC(=O)[C@H](CO)NC(=O)[C@H](CSSC[C@H](NC(=O)[C@H](CCCNC(=N)N)NC(=O)[C@H](C)NC(=O)CNC(=O)[C@@H](NC(=O)[C@H](Cc1ccccc1)NC(=O)CNC(=O)CNC(=O)[C@@H](N)Cc1ccccc1)[C@@H](C)O)C(=O)N[C@@H](CO)C(=O)N[C@@H](C)C(=O)N[C@@H](CCCNC(=N)N)C(=O)N[C@@H](CCCCN)C(=O)N[C@@H](CC(C)C)C(=O)N[C@@H](C)C(=O)N[C@@H](CC(N)=O)C(=O)N[C@@H](CCC(N)=O)C(N)=O)NC(=O)[C@H](CCCNC(=N)N)NC(=O)[C@H](C)NC(=O)CNC(=O)[C@@H](NC(=O)[C@H](Cc1ccccc1)NC(=O)CNC(=O)CNC(=O)[C@@H](N)Cc1ccccc1)[C@@H](C)O)C(=O)N[C@@H](C)C(=O)N[C@@H](CC(N)=O)C(=O)N[C@@H](CCC(N)=O)C(N)=O` [1c, [[Cys^9]N/OFQ-NH2]2] (I: H-FGGFTGARCSARKLANQ-NH2 / II: H-FGGFTGARCSARKLANQ-NH2; disulfide I:9-II:9) were 1.35 nM, 5.01 nM and 289 ± 18 % over the baseline.
